The source of these data is patent publication US8933230B2, “Phosphorus-containing group-substituted quinoline, its preparation process, medical composition containing the compounds and application” (priority 2011, dated 2015).

Data set [1] has as its system GTL-16 human gastric cancer cells. In words: Anti-tumor experiment, GTL-16 xenograft in nude mice. The class given is in vivo, BALB/c-nu/nu mice. To be noted: after 14 days, 50 mg/kg qd p.o. The source says:
Anti-tumor experiments: in this example, N1-[4-[[7-[3-(diethoxyphosphorylmethylamino)propoxyl]-6-methoxyl-4-quinolyl]oxyl]-3-fluorophenyl]-N1′-(4-fluorophenyl)cyclopropane-1,1-dicarboxamide obtained from Example 3 is used in the anti-tumor experiments in nude mice animal model of xenograft GTL-16 human gastric cancer cells, the methods and results are as follows:
7-8 weeks old SPF level female BALB/c-nu/nu mice with 16-20 g of body weights are purchased from Experimental Animal Center of Guangdong Province, inspection certificate number: NO:0072659. GTL-16 gastric cancer cells are purchased from the Cell Source Center of Shanghai Institutes for Biological Sciences. RPM 1-1640 cell culture medium, fetal calf serum (FBS) and digestive juice of trypsin are from Gibco Corporation. All the antibiotics are purchased from Sigma Company.
(§1) Firstly culturing the GTL-16 gastric cancer cells: GTL-16 cell line is inoculated in RPM 1-1640 culture solution containing 10% FBS, 100 U/ml penicillin, 100 U/ml streptomycin, and cultured at 37° C., 5% CO2, 100% humidity in a carbon dioxide cell incubator, the cells enter into logarithmic growth phase after 24 hours, after 48 hours of inoculation, the cells grow to cover the bottom of the culture bottle. […]

The nature of data set [2]: Body weight of GTL-16 tumor-bearing nude mice under treatment. The class given is in vivo, BALB/c-nu/nu mice. To be noted: after treating for 14 days, 50 mg/kg qd p.o. As to the method:
as §1, with “bottle. Then the GTL-16 cells covering 80% bottom of the culture bottle are digested, 5 minutes after centrifuging at 1000 r/min, the cells are diluted to 2×10^7/ml and implanted subcutaneously in the right anterior axillary fossa with 0.1 ml per mouse.” for “bottle.”

Turning to `CCOP(=O)(CNCCCOc1cc2nccc(Oc3ccc(NC(=O)C4(C(=O)Nc5ccc(F)cc5)CC4)cc3F)c2cc1OC)OCC` [Example 3, N1-[4-[[7-[3-(diethoxyphosphorylmethylamino)propoxyl]-6-methoxyl-4-quinolyl]oxyl]-3-fluorophenyl]-N1′-(4-fluorophenyl)cyclopropane-1,1-dicarboxamide], the “Tumor Growth Inhibition (TGI)” value in data set [1] was 85%. In data set [1] (mean±SD, n=8), this molecule showed an average tumor volume of 57.1±61.2 mm^3. In data set [2], this molecule had a body weight change of under 5%.
